Reference: US20240254138A1, “TRICYCLIC PYRIMIDINES AS CYCLIN-DEPENDENT KINASE 7 (CDK7) INHIBITORS” (JANSSEN PHARMACEUTICA NV, priority 2021, published 2024)
Where two headings read alike, the source gives them in different places.

Legend:
[1] = test system: RNA Polymerase II Serine 5 phosphorylation (Rpb1 CTD, downstream substrate of CDK7) in A549 cells; assay: Imaging-based cellular RNA PolII Ser5 phosphorylation assay in A549 cells; assay type: cell-based, human; settings: wild-type CDK7, RNA PolII Ser5 phosphorylation, averaged over all measurements; for IC50: Homo sapiens, A549, A549 cells, read-out: CDK7_A549 Wild-type CDK7 (pIC50) (converted); for CDK7_A549 Wild-type CDK7 (pIC50): A549 cells
Summary of the method: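 A549 cells, seeded 1000/well in DMEM with 1% FBS and cultured 20 h, were treated with compound for 3 h at 37 °C. Ser5-phospho-Rpb1 CTD detected by immunofluorescence imaging after fixation and methanol permeabilization; IC50 from curve fit normalized to DMSO and 10 μM reference-compound controls.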

[2] = target: CDK7/cyclinH/MAT1 trimeric complex (Homo sapiens, UniProt P50613); assay: In vitro CDK7 assay, potency of irreversible covalent inhibitors (kinact/KI), coupled PK/LDH ADP readout at 340 nm; settings: for Ki: CDK7 (20 nM enz.) (KI, μM); for kinact: read-out: CDK7 (20 nM enz.) (kinact, s^−1), 20 nM enzyme
CDK7/cyclinH/MAT1 trimeric complex, sequence (P50613 whole entry): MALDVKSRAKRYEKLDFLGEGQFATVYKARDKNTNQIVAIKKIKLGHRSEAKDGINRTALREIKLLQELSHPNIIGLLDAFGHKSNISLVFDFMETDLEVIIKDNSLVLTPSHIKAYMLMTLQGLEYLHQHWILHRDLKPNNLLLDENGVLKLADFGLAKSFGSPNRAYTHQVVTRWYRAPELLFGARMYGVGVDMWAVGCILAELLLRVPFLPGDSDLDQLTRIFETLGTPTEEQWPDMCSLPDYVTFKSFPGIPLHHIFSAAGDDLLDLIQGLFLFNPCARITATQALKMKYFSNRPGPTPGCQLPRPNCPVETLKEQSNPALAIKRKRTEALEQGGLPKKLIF
CDK7/cyclinH/MAT1 trimeric complex, sequence (P51946 whole entry partner): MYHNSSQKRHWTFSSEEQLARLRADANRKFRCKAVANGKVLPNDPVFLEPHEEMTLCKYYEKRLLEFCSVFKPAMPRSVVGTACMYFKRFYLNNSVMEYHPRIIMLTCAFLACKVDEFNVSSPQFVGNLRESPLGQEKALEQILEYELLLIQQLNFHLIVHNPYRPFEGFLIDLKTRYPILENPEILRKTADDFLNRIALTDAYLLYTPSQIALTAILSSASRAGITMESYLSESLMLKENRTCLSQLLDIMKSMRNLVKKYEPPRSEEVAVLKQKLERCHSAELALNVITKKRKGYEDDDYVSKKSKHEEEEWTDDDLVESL
CDK7/cyclinH/MAT1 trimeric complex, sequence (P51948 whole entry partner): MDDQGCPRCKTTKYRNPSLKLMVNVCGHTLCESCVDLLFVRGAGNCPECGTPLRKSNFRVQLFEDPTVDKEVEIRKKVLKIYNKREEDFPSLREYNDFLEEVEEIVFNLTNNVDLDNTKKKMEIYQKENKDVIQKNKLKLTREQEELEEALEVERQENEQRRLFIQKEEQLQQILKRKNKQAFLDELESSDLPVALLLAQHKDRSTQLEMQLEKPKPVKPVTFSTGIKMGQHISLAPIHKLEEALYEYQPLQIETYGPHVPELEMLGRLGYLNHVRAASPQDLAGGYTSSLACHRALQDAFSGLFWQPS

[3] = test system: RNA Polymerase II Serine 5 phosphorylation in A549 cells overexpressing CDK7-mutant (C312S); assay: Imaging-based cellular RNA PolII Ser5 phosphorylation assay in A549 cells overexpressing CDK7-mutant (C312S); assay type: cell-based, human; settings: RNA PolII Ser5 phosphorylation, averaged over all measurements; for IC50: Homo sapiens, A549, A549 cells overexpressing CDK7-mutant (C312S), read-out: CDK7_A549 mutant hCDK7(pIC50) (converted); for CDK7_A549 mutant hCDK7(pIC50): A549 cells overexpressing CDK7-mutant (C312S)
Summary of the method: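 A549 cells overexpressing CDK7 C312S (with endogenous wild-type CDK7) were treated with compound for 3 h at 37 °C in 1% FBS medium. Phospho-Rpb1 CTD Ser5 was immunostained after fixation and imaged. IC50 came from curve fit of % control, normalised to DMSO and 10 μM reference-compound controls.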

[4] = read-out: CDK7 (20 nM enz.) (kinact/KI, M^−1*s^−1), 20 nM enzyme
[5] = read-out: CDK7 (20 nM enz.) (kobs/[I], M^−1*s^−1), 20 nM enzyme

SMILES: C=C(C(=O)N1CC[C@@H](N2CCC(c3cc4c(c(C)n3)OCc3c(-c5cnn(C)c5)ccnc3N4)CC2)C1)n1cccn1 (single isomer, unassigned) [Compound 365]
- IC50 [1]: 0.0437 µM
- Ki ([2]; 20 nM enzyme): 0.046 µM
- kinact [2]: 4.07e-05 s⁻¹
- kinact/KI [2, 4]: 885 M⁻¹ s⁻¹
- IC50 [3]: > 10 µM

SMILES: CC#CC(=O)N1CC(N2CCC(c3cc4c(c(C)n3)O[C@H](C)c3c(N5CCOCC5)ccnc3N4)CC2)C1 (single isomer, unassigned) [Compound 370]
- CDK7_A549 Wild-type CDK7 (pIC50) [1]: 7.19
- CDK7 (20 nM enz.) (kinact/KI, M^−1*s^−1) ([2]; 20 nM enzyme): 206.483 M⁻¹ s⁻¹
- Ki ([2]; 20 nM enzyme): 0.112 µM
- kinact [2]: 2.32e-05 s⁻¹
- IC50 [3]: > 10 µM

SMILES: C=C(C(=O)N1CC[C@H](N2CCC(c3cc4c(c(C)n3)OCc3c(-c5cnn(C)c5)ccnc3N4)CC2)C1)n1cccn1 (single isomer, unassigned) [Compound 372]
- IC50 [1]: 0.0708 µM
- Ki ([2]; 20 nM enzyme): 0.0621 µM
- kinact [2]: 3.74e-05 s⁻¹
- kinact/KI [2, 4]: 603 M⁻¹ s⁻¹
- IC50 [3]: > 10 µM

SMILES: CC#CC(=O)N1CCC(N2CC(c3cc4c(c(C5CC5)n3)O[C@@H](C)c3c(N5CCOCC5)ccnc3N4)C2)CC1 (single isomer, unassigned) [Compound 374]
- IC50 [1]: 0.457 µM
- Ki ([2]; 20 nM enzyme): 1.36 µM
- kinact [2]: 3.18e-05 s⁻¹
- kinact/KI [2, 4]: 23.3 M⁻¹ s⁻¹
- IC50 [3]: > 10 µM

SMILES: C=CC(=O)N1CCC(N2CC(c3cc4c(c(C5CC5)n3)O[C@@H](C)c3c(N5CCOCC5)ccnc3N4)C2)CC1 (single isomer, unassigned) [Compound 375]
- IC50 [1]: 1.29 µM
- Ki ([2]; 20 nM enzyme): 2.12 µM
- kinact [2]: 2.58e-05 s⁻¹
- kinact/KI [2, 4]: 12.2 M⁻¹ s⁻¹
- IC50 [3]: > 10 µM

SMILES: CC#CC(=O)N1CCC(N2CC(c3cc4c(c(C5CC5)n3)O[C@H](C)c3c(N5CCOCC5)ccnc3N4)C2)CC1 (single isomer, unassigned) [Compound 376]
- IC50 [1]: 0.0355 µM
- Ki ([2]; 20 nM enzyme): 0.0467 µM
- kinact [2]: 9.41e-05 s⁻¹
- kinact/KI [2, 4]: 2020 M⁻¹ s⁻¹
- IC50 [3]: 5.01 µM

SMILES: C=CC(=O)N1CCC(N2CC(c3cc4c(c(C5CC5)n3)O[C@H](C)c3c(N5CCOCC5)ccnc3N4)C2)CC1 (single isomer, unassigned) [Compound 377]
- IC50 [1]: 0.0501 µM
- Ki ([2]; 20 nM enzyme): 0.0468 µM
- kinact [2]: 2.2e-05 s⁻¹
- kinact/KI [2, 4]: 469 M⁻¹ s⁻¹
- IC50 [3]: 5.75 µM

SMILES: CC#CC(=O)N1CC(N2CC[C@@H](c3cc4c(c(C)n3)OCc3c(N5CCOCC5)ccnc3N4)C2)C1 (single isomer, unassigned) [Compound 386]
- IC50 [1]: 1.62 µM
- Ki ([2]; 20 nM enzyme): 0.399 µM
- kinact [2]: 1.64e-05 s⁻¹
- kinact/KI [2, 4]: 41.1 M⁻¹ s⁻¹
- IC50 [3]: > 10 µM

SMILES: CC#CC(=O)N1CC(N2CC[C@H](c3cc4c(c(C)n3)OCc3c(N5CCOCC5)ccnc3N4)C2)C1 (single isomer, unassigned) [Compound 387]
- IC50 [1]: 0.977 µM
- Ki ([2]; 20 nM enzyme): 0.451 µM
- kinact [2]: 2.21e-05 s⁻¹
- kinact/KI [2, 4]: 49.1 M⁻¹ s⁻¹
- IC50 [3]: > 10 µM

SMILES: C=CC(=O)N1CC[C@H](N2CC(c3cc(C)c4c(c3)Nc3nccc(N5CCOCC5)c3[C@@H](C)O4)C2)C1 (single isomer, unassigned) [Compound 388]
- IC50 [1]: ~0.0229 µM
- kinact/KI [2, 5]: 1270 M⁻¹ s⁻¹
- IC50 [3]: 7.24 µM

SMILES: C=CC(=O)N1CC(N2CC[C@@H](c3cc4c(c(C)n3)O[C@@H](C)c3c(N5CCOCC5)ccnc3N4)C2)C1 (single isomer, unassigned) [Compound 392]
- IC50 [1]: 0.129 µM
- Ki ([2]; 20 nM enzyme): 0.0655 µM
- kinact [2]: 5.4e-05 s⁻¹
- kinact/KI [2, 4]: 823 M⁻¹ s⁻¹
- IC50 [3]: ~10 µM

SMILES: C=CC(=O)N1CC[C@@H](N2CC(c3cc(C)c4c(c3)Nc3nccc(N5CCOCC5)c3[C@@H](C)O4)C2)C1 (single isomer, unassigned) [Compound 398]
- IC50 [1]: 0.0302 µM
- kinact/KI [2, 5]: 1630 M⁻¹ s⁻¹
- IC50 [3]: 6.17 µM

SMILES: C=CC(=O)N1CC[C@@H](N2CC(c3cc4c(c(C(F)(F)F)n3)OCc3c(N5CCOCC5)ccnc3N4)C2)C1 (single isomer, unassigned) [Compound 402]
- CDK7_A549 Wild-type CDK7 (pIC50) [1]: 7.1
- CDK7 (20 nM enz.) (kinact, s^−1) ([2]; 20 nM enzyme): 0.000126 s⁻¹
- CDK7 (20 nM enz.) (kinact/KI, M^−1*s^−1) ([2]; 20 nM enzyme): 1530.27 M⁻¹ s⁻¹
- Ki ([2]; 20 nM enzyme): 0.0823 µM
- CDK7_A549 mutant hCDK7(pIC50) [3]: 5.15

SMILES: C=CC(=O)N1CC[C@H](N2CC(c3cc4c(c(C(F)(F)F)n3)OCc3c(N5CCOCC5)ccnc3N4)C2)C1 (single isomer, unassigned) [Compound 404]
- CDK7_A549 Wild-type CDK7 (pIC50) [1]: 7.13
- CDK7 (20 nM enz.) (kobs/[I], M^−1*s^−1) ([2]; 20 nM enzyme): 1280.59 M⁻¹ s⁻¹
- CDK7_A549 mutant hCDK7(pIC50) [3]: 5.09

SMILES: C=CC(=O)N1CCC(N2CCC(c3cc4c(c(C)n3)O[C@H](C)c3c(N5CCOCC5)ccnc3N4)CC2)CC1 (single isomer, unassigned) [Compound 406]
- IC50 [1]: ~0.00977 µM
- Ki ([2]; 20 nM enzyme): 0.495 µM
- kinact [2]: 0.000181 s⁻¹
- kinact/KI [2, 4]: 366 M⁻¹ s⁻¹
- IC50 [3]: 1.82 µM

SMILES: C=CC(=O)N1CCC(N2CCC(c3cc4c(c(C)n3)O[C@@H](C)c3c(N5CCOCC5)ccnc3N4)CC2)CC1 (single isomer, unassigned) [Compound 411]
- IC50 [1]: 0.288 µM
- Ki ([2]; 20 nM enzyme): 3.4 µM
- kinact [2]: 0.000106 s⁻¹
- kinact/KI [2, 4]: 31.3 M⁻¹ s⁻¹
- IC50 [3]: > 10 µM

SMILES: C=CC(=O)N1CC[C@@H](N2CC(c3cc4c(c(C)n3)O[C@H](C)c3c(C5CCOCC5)ccnc3N4)C2)C1 (single isomer, unassigned) [Compound 413]
- IC50 [1]: 0.0759 µM
- Ki ([2]; 20 nM enzyme): 0.0374 µM
- kinact [2]: 4.94e-05 s⁻¹
- kinact/KI [2, 4]: 1320 M⁻¹ s⁻¹
- IC50 [3]: > 10 µM

SMILES: C=CC(=O)N1CC(N2CCC(c3cc4c(c(C)n3)O[C@@H](C)c3c(C5CCOCC5)ccnc3N4)CC2)C1 (single isomer, unassigned) [Compound 415]
- IC50 [1]: 1.82 µM
- Ki ([2]; 20 nM enzyme): 2.22 µM
- kinact [2]: 7.43e-05 s⁻¹
- kinact/KI [2, 4]: 33.5 M⁻¹ s⁻¹
- IC50 [3]: > 10 µM

SMILES: CC#CC(=O)N1CCC(N2CCC(c3cc4c(c(C)n3)O[C@H](C)c3c(N5CCOCC5)ccnc3N4)CC2)CC1 (single isomer, unassigned) [Compound 416]
- IC50 [1]: < 0.00977 µM
- kinact/KI [2, 5]: 1750 M⁻¹ s⁻¹
- IC50 [3]: 1.86 µM

SMILES: CC#CC(=O)N1CC[C@H](N2CC(c3cc4c(c(C5CC5)n3)OCc3c(N5CCOCC5)ccnc3N4)C2)C1 (single isomer, unassigned) [Compound 418]
- IC50 [1]: 0.257 µM
- Ki ([2]; 20 nM enzyme): 0.0692 µM
- kinact [2]: 2.87e-05 s⁻¹
- kinact/KI [2, 4]: 415 M⁻¹ s⁻¹
- IC50 [3]: 8.71 µM

SMILES: C=CC(=O)N1CC[C@H](N2CC(c3cc4c(c(C5CC5)n3)OCc3c(N5CCOCC5)ccnc3N4)C2)C1 (single isomer, unassigned) [Compound 421]
- CDK7_A549 Wild-type CDK7 (pIC50) [1]: 7.02
- CDK7 (20 nM enz.) (kinact/KI, M^−1*s^−1) ([2]; 20 nM enzyme): 1185.66 M⁻¹ s⁻¹
- Ki ([2]; 20 nM enzyme): 0.064 µM
- kinact [2]: 7.59e-05 s⁻¹
- CDK7_A549 mutant hCDK7(pIC50) [3]: 5

SMILES: C=CC(=O)N1CC[C@H](N2CC(c3cc4c(c(C)n3)O[C@H](C)c3c(C5CCOCC5)ccnc3N4)C2)C1 (single isomer, unassigned) [Compound 422]
- IC50 [1]: 0.115 µM
- Ki ([2]; 20 nM enzyme): 0.0415 µM
- kinact [2]: 4.6e-05 s⁻¹
- kinact/KI [2, 4]: 1110 M⁻¹ s⁻¹
- IC50 [3]: > 10 µM

SMILES: CC#CC(=O)N1CC[C@@H](N2CC(c3cc4c(c(C5CC5)n3)OCc3c(N5CCOCC5)ccnc3N4)C2)C1 (single isomer, unassigned) [Compound 425]
- IC50 [1]: 0.2 µM
- Ki ([2]; 20 nM enzyme): 0.0971 µM
- kinact [2]: 2.48e-05 s⁻¹
- kinact/KI [2, 4]: 255 M⁻¹ s⁻¹
- IC50 [3]: > 10 µM

SMILES: CC#CC(=O)N1CCC(N2CCC(c3cc4c(c(C)n3)O[C@@H](C)c3c(N5CCOCC5)ccnc3N4)CC2)CC1 (single isomer, unassigned) [Compound 426]
- IC50 [1]: 0.0631 µM
- Ki ([2]; 20 nM enzyme): 0.642 µM
- kinact [2]: 4.43e-05 s⁻¹
- kinact/KI [2, 4]: 69 M⁻¹ s⁻¹
- IC50 [3]: > 10 µM
